# Results as given in publication PMC4492822 (EMBO Molecular Medicine, 2015).
# Experiments:
# [1] = system: Twist1/Kras^G12D lung tumors; test: Twist1/KrasG12D lung tumor model, fractionated radiation (10 fractions of 3 Gy); type: in vivo, mouse; settings: 3 weeks following treatment
# Method: Inducible Twist1/Kras^G12D transgenic mice in the FVB/N inbred background were of the genotype: CCSP-rtTA/tetO-KrasG12D/Twist1-tetO-luc (Tran et al, [2012]). All the mice were weaned 3–4 weeks of age and then placed on dox at 4–6 weeks of age. Mice were treated with similar levels of tumor burden per micro-CT and were typically 20–30 weeks old. Mice were treated as in Fig6C and H. Each group consisted of mice, of which multiple index tumors were followed in time by micro-CT and quantified by a board-certified radiation oncologist (JZ) in a blinded fashion. Bi-dimensional measurements were made on tumors using serial examinations and tumor volumes calculated using the equation Volume = π/6 × 1.65 (length × width) × 3/2. Volumes were normalized to the starting volume, t = 0 before treatment. For 15-Gy SABR experiments, the breakdown of animal usage is (1) RT = 3 female mice, (2) RK-33 = 3 females and 1 male mice, (3) carboplatin = 3 male mice, (4) RT + carboplatin = 3 female mice, and (5) RT + RK-33 = 5 female mice. […]
# The mice underwent micro-CT imaging by use of the Small Animal Radiation Research Platform (SARRP) irradiator described earlier (Wong et al, [2008]). […] Tumor volumes were quantified from the CT dataset with Pinnacle3 software v.8.1y (Philips Inc, Madison, WI) as described previously (Tran et al, [2011]; Zeng et al, [2013]). […]
# A549 cells = test: Colony-forming assay with γ-radiation; type: cell-based, human; settings: 1 μM and 2 μM, added 4 h before radiation
# Method: Cells were irradiated at room temperature with 0.5 Gy/min to the desired dose using a Gammacell 40 ^137Cs irradiator. For in vivo experiments, mice were treated using the Small Animal Radiation Research Platform (Wong et al, [2008]). The tumors were irradiated with a circular beam of 1 cm diameter.
# Cells were counted, plated, and allowed to attach overnight. RK-33 at specified doses was added 4 h before radiation was delivered. Colonies were stained and counted approximately 10 days after irradiation. Surviving fraction was calculated by dividing the number of colonies formed by the number of cells plated times the plating efficiency. Curves were fitted with a quadratic polynomial equation. P-values were determined by the extra sum of square F-test.
# DDX3 = DDX3 (Homo sapiens, UniProt O00571); test: Biotin bead pull-down assay with biotinylated RK-33 (AK-298, SK-153), immunoblot; type: binding; settings: biotinylated RK-33 molecules, 10 μM
# Method: Mean from 3 replicates with SD. • J, K Colony-forming assay of A549 and H3255 cells treated with RK-33 and with various doses of radiation 4 h later. Curves were fitted with a quadratic polynomial equation. Mean from 2 replicates with SD. P-values were determined by the extra sum of squares F-test. Source data are available online for this figure.
# Two plates of 70% confluent cells were lysed with IP lysis buffer (Tris–HCl (pH 7.4) 25 mM, NaCl 150 mM, EDTA 1 mM, NP-40 1%, glycerol 5%, protease inhibitor). […] Streptavidin beads were added and incubated for 1 h at room temperature. The biotin-bead–RK-33 complex was extracted with a magnetic stand and washed seven times with PBS. Proteins were analyzed by immunoblot.
# H460 = test: Annexin V / PI flow cytometry, 72 h; type: cell-based
# Method: (§1) Histograms depicting early apoptosis (Annexin V positive) and late apoptosis (PI positive) in cells treated with the indicated amounts of RK-33. Cells were either treated with DMSO (controls) or IC50 and IC75 amounts of RK-33. After 72 hours incubation, cells were harvested and stained for Annexin V and PI and analyzed by flow cytometry.
# H196 = test: Annexin V / PI flow cytometry, 72 h; type: cell-based
# Method: as §1
# H1299 = test: Annexin V / PI flow cytometry, 72 h; type: cell-based
# Method: as §1
# H358 = test: Annexin V / PI flow cytometry, 72 h; type: cell-based
# Method: as §1
# H23 = test: Annexin V / PI flow cytometry, 72 h; type: cell-based
# Method: as §1
# [2] = system: TCF4 activity in A549 cells; test: TCF reporter assay (TOP/FOP-FLASH); type: cell-based, human; settings: 0, 1, 2, and 3 μM; wild-type and β-catenin-overexpressing cells
# Method: Transcriptional activity of TCF4 was assayed using the dual luciferase assay (Promega, Madison, WI, USA) according to the manufacturer's instructions. Briefly, 1.5 × 10^4 A549 or H1299 cells were transfected with 500 ng of TOP-FLASH and control FOP-FLASH constructs along with 50 ng of phRL Renilla constructs as transfection controls as well as with 500 ng β-catenin constructs when indicated. Cells were cultured for 24 h and then lysed in passive lysis buffer. Luminescence was detected using a luminometer (Berthold Sirius, Oak Ridge, TN, USA). Relative TCF4 promoter activity was calculated by dividing firefly luminescence by Renilla luminescence, and then normalized TOP-FLASH was divided by normalized FOP-FLASH, which was finally normalized to vector or DMSO control cells. All experiments were repeated three times, and differences were assessed by the paired t-test.
# H3255 cells = test: Immunoblotting of MAPK pathway proteins; type: cell-based; settings: 7.5 μM or 10 μM, 24 h
# Method: Cell lysate was prepared with TB buffer method. For immunoblotting, ~25 μg protein was loaded on 10% SDS–PAGE gels. […] The blots were developed with clarity Western ECL (Bio-Rad, Hercules, CA, USA) and imaged with G:BOX Chemi XR5 (Syngene, Frederick, MD, USA).
# [3] = 7.5 uM, lower line, first value
# [4] = 7.5 uM, lower line, second value
# Chain of DDX3 (O00571 2-582): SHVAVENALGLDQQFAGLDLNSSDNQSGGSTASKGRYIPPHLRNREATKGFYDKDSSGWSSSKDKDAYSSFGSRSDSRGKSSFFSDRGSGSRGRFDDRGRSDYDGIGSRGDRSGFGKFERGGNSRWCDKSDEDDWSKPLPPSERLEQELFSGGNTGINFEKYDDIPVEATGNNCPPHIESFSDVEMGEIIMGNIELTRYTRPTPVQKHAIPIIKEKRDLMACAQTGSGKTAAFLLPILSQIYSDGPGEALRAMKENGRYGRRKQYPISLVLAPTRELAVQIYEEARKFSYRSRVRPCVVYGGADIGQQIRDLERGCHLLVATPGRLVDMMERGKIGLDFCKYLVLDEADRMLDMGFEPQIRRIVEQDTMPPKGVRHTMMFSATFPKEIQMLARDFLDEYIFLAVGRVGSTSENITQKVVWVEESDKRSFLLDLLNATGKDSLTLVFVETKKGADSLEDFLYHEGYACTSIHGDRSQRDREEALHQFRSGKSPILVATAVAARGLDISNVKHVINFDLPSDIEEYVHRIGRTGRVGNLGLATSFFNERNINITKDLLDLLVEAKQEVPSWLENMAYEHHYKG
substance,measurement,setting,value
"diimidazo[4,5-d:4′,5′-f]-[1,3]diazepine [RK-33]","decrease in tumor growth, RK-33 and radiation versus radiation",[1],not significant
same,sensitization to γ-radiation,A549 cells,sensitized A549 cells to γ-radiation
same,binding to DDX3 in pull-down,DDX3,binds specifically to DDX3
same,cells in gate of Annexin V/PI plot,"H460; 6.5 uM, lower value of panel",62
same,cells in gate of Annexin V/PI plot,"H460; 6.5 uM, upper value of panel",25.6
same,cells in gate of Annexin V/PI plot,"H460; 9 uM, lower value of panel",50.1
same,cells in gate of Annexin V/PI plot,"H460; 9 uM, upper value of panel",34.7
same,cells in gate of Annexin V/PI plot,"H196; 3 uM, lower value of panel",43.3
same,cells in gate of Annexin V/PI plot,"H196; 3 uM, upper value of panel",52.7
same,cells in gate of Annexin V/PI plot,"H196; 4.5 uM, lower value of panel",36.6
same,cells in gate of Annexin V/PI plot,"H196; 4.5 uM, upper value of panel",60.9
same,cells in gate of Annexin V/PI plot,H1299; [3],40.4
same,cells in gate of Annexin V/PI plot,H1299; [4],12.6
same,cells in gate of Annexin V/PI plot,"H1299; 7.5 uM, upper value of panel",33.7
same,cells in gate of Annexin V/PI plot,"H1299; 13 uM, lower line, first value",36
same,cells in gate of Annexin V/PI plot,"H1299; 13 uM, lower line, second value",7.3
same,cells in gate of Annexin V/PI plot,"H1299; 13 uM, upper value of panel",41.5
same,cells in gate of Annexin V/PI plot,"H358; 11 uM, lower line, first value",26.6
same,cells in gate of Annexin V/PI plot,"H358; 11 uM, lower line, second value",31.9
same,cells in gate of Annexin V/PI plot,"H358; 11 uM, upper value of panel",34.9
same,cells in gate of Annexin V/PI plot,"H358; 16 uM, lower line, first value",26.8
same,cells in gate of Annexin V/PI plot,"H358; 16 uM, lower line, second value",26.5
same,cells in gate of Annexin V/PI plot,"H358; 16 uM, upper value of panel",40.8
same,cells in gate of Annexin V/PI plot,"H23; 5 uM, lower line, first value",30.3
same,cells in gate of Annexin V/PI plot,"H23; 5 uM, lower line, second value",28.2
same,cells in gate of Annexin V/PI plot,"H23; 5 uM, upper value of panel",39
same,cells in gate of Annexin V/PI plot,H23; [3],17.1
same,cells in gate of Annexin V/PI plot,H23; [4],18.8
same,cells in gate of Annexin V/PI plot,"H23; 7.5 uM, upper value of panel",60.4
same,TCF activity,[2],reduced TCF activity significantly
same,ERK1/2 phosphorylation,H3255 cells,increase of ERK1/2 phosphorylation
